Measurements published in ChEMBL document CHEMBL2385026, “Identification of C-2 hydroxyethyl imidazopyrrolopyridines as potent JAK1 inhibitors with favorable physicochemical properties and high selectivity over JAK2” (J Med Chem, 2013).
pEC50, pIC50, pKi: −log10 of the molar value. ≈ marks a conversion by molar mass, not a printed value. Calls of active or inactive are those of the source. The rule behind the calls is not given here.

How the values were obtained:
[1] = AUC in Beagle dog at 2 mg/kg, po by LC/MS/MS analysis; format: ADME, organism-based, Canis lupus familiaris; design: dose 2 mg/kg, route oral; conditions: plasma
[2] = target: T1, Tyrosine-protein kinase JAK1 (Homo sapiens, UniProt P23458)
Cytochrome P450 2C9 = Cytochrome P450 2C9 (Homo sapiens, UniProt P11712)
Cytochrome P450 2D6 = Cytochrome P450 2D6 (Homo sapiens, UniProt P10635)
[3] = target: T1, Tyrosine-protein kinase JAK1; remark: listed apart in the source
[4] = Plasma protein binding in dog; format: ADME, cell-free, Canis lupus familiaris; conditions: read-out: PPB (converted)
[5] = Thermodynamic solubility in aqueous buffer at pH 7.4; format: physicochemical; conditions: read-out: Therm_solubility
[6] = Apparent permeability across basolateral to apical side in dog MDCK cells; format: ADME, cell-based, Canis lupus familiaris
[7] = Thermodynamic solubility in aqueous buffer at pH 2; format: physicochemical; conditions: read-out: Therm_solubility
Cytochrome P450 2C19 = Cytochrome P450 2C19 (Homo sapiens, UniProt P33261)
[8] = Hepatic clearance in human liver microsomes by LC/MS/MS analysis; format: ADME, Microsome
[9] = Plasma protein binding in rat; format: ADME, cell-free; conditions: read-out: PPB (converted)
[10] = Cmax in Sprague-Dawley rat at 2 mg/kg, po by LC/MS/MS analysis; format: ADME, organism-based; design: dose 2 mg/kg, route oral; conditions: in vivo
[11] = Hepatic clearance in human hepatocytes after 1 to 4 hrs by LC/MS/MS analysis; format: ADME, cell-based, Liver, Hepatocyte
[12] = target: T1, Tyrosine-protein kinase JAK1; remark: listed apart in the source
[13] = Oral bioavailability in Sprague-Dawley rat at 2 mg/kg by LC/MS/MS analysis; format: ADME, organism-based; conditions: Sprague-Dawley, in vivo
[14] = AUC in Sprague-Dawley rat at 2 mg/kg, po by LC/MS/MS analysis; format: ADME, organism-based; design: dose 2 mg/kg, route oral; conditions: plasma
[15] = Clearance in Beagle dog at 0.4 mg/kg, iv by LC/MS/MS analysis; format: ADME, organism-based, Canis lupus familiaris; design: dose 0.4 mg/kg, route intravenous; conditions: in vivo
[16] = Metabolic stability in monkey hepatocytes assessed as hepatic clearance; format: ADME, cell-based, Macaca mulatta, Liver, Hepatocyte; conditions: rhesus monkey
[17] = Metabolic stability in rat hepatocytes assessed as hepatic clearance; format: ADME, cell-based, Liver, Hepatocyte
[18] = target: Leucine-rich repeat serine/threonine-protein kinase 2 (Homo sapiens) (UniProt Q5S007); assay: Inhibition of LRRK2 (unknown origin) at 1 uM
[19] = Metabolic stability in dog hepatocytes assessed as hepatic clearance; format: ADME, cell-based, Canis lupus familiaris, Liver, Hepatocyte
[20] = Half life in Sprague-Dawley rat at 0.4 mg/kg, iv by LC/MS/MS analysis; format: ADME, organism-based; design: dose 0.4 mg/kg, route intravenous; conditions: in vivo
[21] = Half life in Beagle dog at 0.4 mg/kg, iv by LC/MS/MS analysis; format: ADME, organism-based, Canis lupus familiaris; design: dose 0.4 mg/kg, route intravenous; conditions: in vivo
[22] = Apparent permeability across apical to basolateral side in dog MDCK cells; format: ADME, cell-based, Canis lupus familiaris
[23] = target: T2, Non-receptor tyrosine-protein kinase TYK2 (Homo sapiens, UniProt P29597)
Cytochrome P450 1A2 = target: T3, Cytochrome P450 1A2 (Homo sapiens, UniProt P05177); assay: Reversible inhibition of CYP1A2 in human liver microsomes using phenacetin as substrate by LC/MS/MS analysis; format: ADME, Microsome
T3 sequence (P05177 whole entry): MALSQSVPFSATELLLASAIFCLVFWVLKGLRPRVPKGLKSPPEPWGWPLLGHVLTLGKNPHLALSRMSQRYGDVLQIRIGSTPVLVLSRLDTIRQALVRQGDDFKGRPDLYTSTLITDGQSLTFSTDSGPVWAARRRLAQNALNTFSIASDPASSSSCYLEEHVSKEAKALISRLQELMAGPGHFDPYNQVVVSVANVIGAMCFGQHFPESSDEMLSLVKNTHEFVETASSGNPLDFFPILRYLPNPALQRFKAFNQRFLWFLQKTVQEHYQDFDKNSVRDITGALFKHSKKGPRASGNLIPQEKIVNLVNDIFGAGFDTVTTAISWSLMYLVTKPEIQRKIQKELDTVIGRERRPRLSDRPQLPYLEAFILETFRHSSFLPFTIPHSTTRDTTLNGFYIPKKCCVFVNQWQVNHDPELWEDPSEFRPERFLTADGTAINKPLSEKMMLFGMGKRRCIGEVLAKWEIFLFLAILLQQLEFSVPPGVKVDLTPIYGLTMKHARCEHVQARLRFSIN

[24] = target: Tyrosine-protein kinase JAK3 (Homo sapiens, UniProt P52333)
Cytochrome P450 3A4 [25] = target: T4, Cytochrome P450 3A4 (Homo sapiens, UniProt P08684); assay: Reversible inhibition of CYP3A4 in human liver microsomes using testosterone as substrate by LC/MS/MS analysis; format: ADME, Microsome
Cytochrome P450 3A4 [26] = target: T4, Cytochrome P450 3A4; assay: Reversible inhibition of CYP3A4 in human liver microsomes using midazolam as substrate by LC/MS/MS analysis; format: ADME, Microsome
[27] = target: T2, Non-receptor tyrosine-protein kinase TYK2; remark: listed apart in the source
[28] = Oral bioavailability in Beagle dog at 2 mg/kg by LC/MS/MS analysis; format: ADME, organism-based, Canis lupus familiaris; conditions: Beagle, in vivo
[29] = target: Macrophage colony-stimulating factor 1 receptor (Homo sapiens) (UniProt P07333); assay: Inhibition of CSF1R (unknown origin) at 1 uM
[30] = Clearance in Sprague-Dawley rat at 0.4 mg/kg, iv by LC/MS/MS analysis; format: ADME, organism-based; design: dose 0.4 mg/kg, route intravenous; conditions: in vivo
[31] = Plasma protein binding in cynomolgus monkey; format: ADME, cell-free, Macaca fascicularis; conditions: read-out: PPB (converted)
[32] = Cmax in Beagle dog at 2 mg/kg, po by LC/MS/MS analysis; format: ADME, organism-based, Canis lupus familiaris; design: dose 2 mg/kg, route oral; conditions: in vivo
[33] = target: Voltage-gated inwardly rectifying potassium channel KCNH2 (Homo sapiens, UniProt Q12809)
[34] = Oral bioavailability in cynomolgus monkey at 2 mg/kg by LC/MS/MS analysis; format: ADME, organism-based, Macaca fascicularis; conditions: in vivo
Rattus norvegicus [35] = assay: Antiarthritic activity in Lewis rat collagen-induced arthritis model assessed as decrease in mean ankle thicknesses at 500 mg/kg, po qd administered for 11 days; format: functional, organism-based; design: dose 500 mg/kg
[36] = system: Platelet-derived growth factor receptor alpha (Homo sapiens), P16234 [V561D]; assay: Inhibition of PDGFRalpha V561D mutant (unknown origin) at 1 uM
[37] = Clearance in cynomolgus monkey at 0.4 mg/kg, iv by LC/MS/MS analysis; format: ADME, organism-based, Macaca fascicularis; design: dose 0.4 mg/kg, route intravenous; conditions: in vivo
[38] = AUC in Lewis rat collagen-induced arthritis model at 500 mg/kg, po administered on day 10; format: ADME, organism-based; design: dose 500 mg/kg, route oral; conditions: in vivo
[39] = AUC in Lewis rat collagen-induced arthritis model at 20 mg/kg, po administered on day 20; format: ADME, organism-based; design: dose 20 mg/kg, route oral; conditions: in vivo
[40] = AUC in cynomolgus monkey at 2 mg/kg, po by LC/MS/MS analysis; format: ADME, organism-based, Macaca fascicularis; design: dose 2 mg/kg, route oral; conditions: plasma
[41] = AUC in Lewis rat collagen-induced arthritis model at 100 mg/kg, po administered on day 20; format: ADME, organism-based; design: dose 100 mg/kg, route oral; conditions: in vivo
[42] = Cmax in cynomolgus monkey at 2 mg/kg, po by LC/MS/MS analysis; format: ADME, organism-based, Macaca fascicularis; design: dose 2 mg/kg, route oral; conditions: in vivo
[43] = AUC in Lewis rat collagen-induced arthritis model at 100 mg/kg, po administered on day 10; format: ADME, organism-based; design: dose 100 mg/kg, route oral; conditions: in vivo
[44] = Half life in cynomolgus monkey at 0.4 mg/kg, iv by LC/MS/MS analysis; format: ADME, organism-based, Macaca fascicularis; design: dose 0.4 mg/kg, route intravenous; conditions: in vivo
[45] = AUC in Lewis rat collagen-induced arthritis model at 20 mg/kg, po administered on day 10; format: ADME, organism-based; design: dose 20 mg/kg, route oral; conditions: in vivo
[46] = AUC in Lewis rat collagen-induced arthritis model at 500 mg/kg, po administered on day 20; format: ADME, organism-based; design: dose 500 mg/kg, route oral; conditions: in vivo
Rattus norvegicus [47] = assay: Antiarthritic activity in Lewis rat collagen-induced arthritis model assessed as decrease in mean ankle thicknesses at 20 mg/kg, po qd administered for 11 days; format: functional, organism-based; design: dose 20 mg/kg
Rattus norvegicus [48] = assay: Antiarthritic activity in Lewis rat collagen-induced arthritis model assessed as decrease in mean ankle thicknesses at 100 mg/kg, po qd administered for 11 days; format: functional, organism-based; design: dose 100 mg/kg

T1 sequence (P23458 whole entry): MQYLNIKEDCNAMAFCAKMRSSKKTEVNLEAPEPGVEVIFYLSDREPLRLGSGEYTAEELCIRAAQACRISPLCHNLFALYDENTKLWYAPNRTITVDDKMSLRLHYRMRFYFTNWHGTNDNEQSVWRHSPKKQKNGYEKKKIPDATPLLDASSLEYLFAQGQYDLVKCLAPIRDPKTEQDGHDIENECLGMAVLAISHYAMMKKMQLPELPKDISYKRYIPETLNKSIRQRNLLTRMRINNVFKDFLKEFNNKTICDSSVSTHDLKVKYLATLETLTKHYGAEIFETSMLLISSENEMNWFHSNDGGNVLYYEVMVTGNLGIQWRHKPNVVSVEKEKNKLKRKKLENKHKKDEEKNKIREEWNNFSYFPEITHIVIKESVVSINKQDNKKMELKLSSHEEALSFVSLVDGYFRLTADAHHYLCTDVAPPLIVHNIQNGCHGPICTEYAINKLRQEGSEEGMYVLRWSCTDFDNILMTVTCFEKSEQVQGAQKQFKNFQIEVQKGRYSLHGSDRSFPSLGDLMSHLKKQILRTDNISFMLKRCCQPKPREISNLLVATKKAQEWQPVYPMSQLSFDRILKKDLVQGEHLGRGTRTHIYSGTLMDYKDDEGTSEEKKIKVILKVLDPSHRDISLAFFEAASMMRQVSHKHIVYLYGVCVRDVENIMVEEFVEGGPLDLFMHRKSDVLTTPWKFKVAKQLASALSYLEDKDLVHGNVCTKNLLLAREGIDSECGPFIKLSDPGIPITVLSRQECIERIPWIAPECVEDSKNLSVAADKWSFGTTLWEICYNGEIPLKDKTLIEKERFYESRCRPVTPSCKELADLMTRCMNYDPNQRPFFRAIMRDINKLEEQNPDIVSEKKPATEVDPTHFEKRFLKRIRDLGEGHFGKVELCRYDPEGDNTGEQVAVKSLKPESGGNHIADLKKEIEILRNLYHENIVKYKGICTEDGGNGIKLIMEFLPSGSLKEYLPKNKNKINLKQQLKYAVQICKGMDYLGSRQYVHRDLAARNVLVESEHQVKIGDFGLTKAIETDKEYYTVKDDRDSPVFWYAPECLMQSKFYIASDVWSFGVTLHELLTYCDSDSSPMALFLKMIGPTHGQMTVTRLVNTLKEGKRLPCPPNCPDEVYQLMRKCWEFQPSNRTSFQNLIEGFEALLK
T4 sequence (P08684 whole entry): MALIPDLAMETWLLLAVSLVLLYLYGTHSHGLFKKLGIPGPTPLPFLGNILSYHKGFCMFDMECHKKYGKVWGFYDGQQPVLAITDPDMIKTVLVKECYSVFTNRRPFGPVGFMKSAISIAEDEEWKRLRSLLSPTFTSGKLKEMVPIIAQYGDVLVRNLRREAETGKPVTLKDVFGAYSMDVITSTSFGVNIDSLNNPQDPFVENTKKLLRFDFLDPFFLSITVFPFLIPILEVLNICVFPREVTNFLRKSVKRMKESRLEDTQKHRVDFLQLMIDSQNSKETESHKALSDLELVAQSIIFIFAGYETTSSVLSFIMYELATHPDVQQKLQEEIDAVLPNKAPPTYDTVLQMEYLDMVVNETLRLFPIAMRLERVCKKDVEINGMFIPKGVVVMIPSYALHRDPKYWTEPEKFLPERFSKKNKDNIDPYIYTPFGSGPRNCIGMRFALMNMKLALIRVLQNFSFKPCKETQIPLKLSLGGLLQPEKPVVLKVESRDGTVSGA
T2 sequence (P29597 whole entry): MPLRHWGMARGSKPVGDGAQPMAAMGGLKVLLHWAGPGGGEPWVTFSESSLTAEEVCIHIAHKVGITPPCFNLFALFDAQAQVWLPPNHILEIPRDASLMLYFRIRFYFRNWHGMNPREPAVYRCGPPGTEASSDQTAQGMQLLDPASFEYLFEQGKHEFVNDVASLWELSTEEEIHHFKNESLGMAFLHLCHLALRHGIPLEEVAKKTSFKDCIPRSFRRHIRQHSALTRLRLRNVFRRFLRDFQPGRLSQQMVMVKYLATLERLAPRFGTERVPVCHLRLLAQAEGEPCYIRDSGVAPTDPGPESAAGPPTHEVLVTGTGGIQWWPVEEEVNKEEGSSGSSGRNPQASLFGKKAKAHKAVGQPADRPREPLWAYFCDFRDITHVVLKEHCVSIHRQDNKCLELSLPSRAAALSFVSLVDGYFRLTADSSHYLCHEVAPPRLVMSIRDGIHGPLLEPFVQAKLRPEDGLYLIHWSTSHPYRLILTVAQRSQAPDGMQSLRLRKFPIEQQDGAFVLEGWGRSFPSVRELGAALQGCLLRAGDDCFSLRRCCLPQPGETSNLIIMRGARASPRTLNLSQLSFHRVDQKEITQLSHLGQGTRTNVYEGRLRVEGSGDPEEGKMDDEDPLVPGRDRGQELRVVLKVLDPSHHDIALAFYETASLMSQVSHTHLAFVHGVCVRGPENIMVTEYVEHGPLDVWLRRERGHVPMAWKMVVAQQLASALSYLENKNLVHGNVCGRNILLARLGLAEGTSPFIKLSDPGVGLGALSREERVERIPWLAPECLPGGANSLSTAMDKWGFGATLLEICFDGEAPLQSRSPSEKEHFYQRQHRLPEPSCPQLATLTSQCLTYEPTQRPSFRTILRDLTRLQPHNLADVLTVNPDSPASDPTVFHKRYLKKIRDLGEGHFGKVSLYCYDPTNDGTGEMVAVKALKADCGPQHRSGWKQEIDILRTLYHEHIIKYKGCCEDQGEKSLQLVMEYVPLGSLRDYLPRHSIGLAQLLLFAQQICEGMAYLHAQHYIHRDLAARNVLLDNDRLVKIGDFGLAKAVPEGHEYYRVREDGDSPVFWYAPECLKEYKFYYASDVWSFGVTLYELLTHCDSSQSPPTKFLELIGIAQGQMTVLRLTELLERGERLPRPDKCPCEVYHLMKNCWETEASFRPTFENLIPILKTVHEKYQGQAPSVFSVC
Chain of Cytochrome P450 2C9 (P11712 whole entry): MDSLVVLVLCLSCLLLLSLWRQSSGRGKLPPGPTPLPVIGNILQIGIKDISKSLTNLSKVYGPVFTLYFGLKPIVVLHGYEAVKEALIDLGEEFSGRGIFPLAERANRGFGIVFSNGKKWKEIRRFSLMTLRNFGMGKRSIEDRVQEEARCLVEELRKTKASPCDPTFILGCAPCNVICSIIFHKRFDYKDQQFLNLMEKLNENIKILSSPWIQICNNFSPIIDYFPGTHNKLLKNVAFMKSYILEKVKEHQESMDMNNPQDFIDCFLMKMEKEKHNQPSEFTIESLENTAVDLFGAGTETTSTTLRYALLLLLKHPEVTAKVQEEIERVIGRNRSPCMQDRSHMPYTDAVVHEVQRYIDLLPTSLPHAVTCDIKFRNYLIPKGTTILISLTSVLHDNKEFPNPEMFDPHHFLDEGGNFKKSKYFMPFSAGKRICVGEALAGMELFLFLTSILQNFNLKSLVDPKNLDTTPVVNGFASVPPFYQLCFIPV
Chain of Cytochrome P450 2C19 (P33261 whole entry): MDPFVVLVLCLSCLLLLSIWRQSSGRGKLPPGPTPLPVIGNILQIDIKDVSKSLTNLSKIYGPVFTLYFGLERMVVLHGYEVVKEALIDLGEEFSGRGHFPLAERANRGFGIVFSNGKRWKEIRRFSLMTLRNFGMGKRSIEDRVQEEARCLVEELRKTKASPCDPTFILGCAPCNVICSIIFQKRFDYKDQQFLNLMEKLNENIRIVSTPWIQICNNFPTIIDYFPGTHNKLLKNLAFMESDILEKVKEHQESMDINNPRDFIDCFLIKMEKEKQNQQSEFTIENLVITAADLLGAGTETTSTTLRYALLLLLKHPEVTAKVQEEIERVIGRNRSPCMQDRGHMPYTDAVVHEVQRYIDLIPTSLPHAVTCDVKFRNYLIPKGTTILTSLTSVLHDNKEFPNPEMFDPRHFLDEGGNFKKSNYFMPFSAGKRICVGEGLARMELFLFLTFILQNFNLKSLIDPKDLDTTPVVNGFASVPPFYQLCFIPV
Chain of Cytochrome P450 2D6 (P10635 whole entry): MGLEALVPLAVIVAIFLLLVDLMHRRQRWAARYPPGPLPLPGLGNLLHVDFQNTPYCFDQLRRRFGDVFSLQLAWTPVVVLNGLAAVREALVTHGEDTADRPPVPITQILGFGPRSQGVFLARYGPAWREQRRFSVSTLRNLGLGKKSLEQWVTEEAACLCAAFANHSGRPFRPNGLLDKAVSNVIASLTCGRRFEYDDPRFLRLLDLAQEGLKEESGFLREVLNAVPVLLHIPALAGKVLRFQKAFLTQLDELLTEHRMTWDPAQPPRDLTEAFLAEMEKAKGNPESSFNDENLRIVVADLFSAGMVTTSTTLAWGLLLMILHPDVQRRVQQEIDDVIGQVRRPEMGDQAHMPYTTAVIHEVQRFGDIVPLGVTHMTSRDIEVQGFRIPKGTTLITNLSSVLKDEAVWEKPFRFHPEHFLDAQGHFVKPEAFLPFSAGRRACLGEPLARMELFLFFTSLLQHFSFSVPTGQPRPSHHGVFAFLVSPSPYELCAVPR

## C[C@@H](O)c1nc2cnc3[nH]ccc3c2n1[C@H]1CC[C@@H](NCC(F)(F)F)C1
[1]
  AUC: 9 µM·h
[2]
  pEC50: 7.15
Cytochrome P450 2C9
  pIC50: < 5.00
Cytochrome P450 2D6
  pIC50: < 5.00
[3]
  pEC50: 7.29
[4]
  fraction unbound: 0.41
[5]
  solubility thermodynamic: 70 µM (≈ 25.7 µg/mL)
[6]
  Papp B→A: 18 ×10⁻⁶ cm/s
[7]
  solubility thermodynamic: > 4000 µM
Cytochrome P450 2C19
  pIC50: < 5.00
[8]
  CLhep predicted: 3.8 mL/min/kg
[9]
  fraction unbound: 0.51
[10]
  Cmax: 980 nM
[11]
  CLhep predicted: 3.6 mL/min/kg
[12]
  pKi: 8.70
[13]
  bioavailability: 61%
[14]
  AUC: 1 µM·h
[15]
  clearance: 14 mL/min/kg
[16]
  CLhep predicted: 27 mL/min/kg
[17]
  CLhep predicted: 14 mL/min/kg
[18]
  inhibition: 72%
[19]
  CLhep predicted: 9.8 mL/min/kg
[20]
  half-life: 1.1 h
[21]
  half-life: 1.2 h
[22]
  Papp A→B: 10 ×10⁻⁶ cm/s
[23]
  pEC50: 5.66
Cytochrome P450 1A2
  pIC50: < 5.00
[24]
  pKi: 7.28
Cytochrome P450 3A4 [25]
  pIC50: < 5.00
Cytochrome P450 3A4 [26]
  pIC50: < 5.00
[27]
  pKi: 7.70
[28]
  bioavailability: 131%
[29]
  inhibition: 75%
[30]
  clearance: 55 mL/min/kg
[31]
  fraction unbound: 0.44
[32]
  Cmax: 3000 nM

## C[C@@H](O)c1nc2cnc3[nH]ccc3c2n1[C@H]1CC[C@H](C#N)CC1
[1]
  AUC: 8.3 µM·h
[2]
  pEC50: 6.92
[33]
  pIC50: < 4.00
Cytochrome P450 2C9
  pIC50: < 5.00
Cytochrome P450 2D6
  pIC50: < 5.00
[3]
  pEC50: 6.89
[4]
  fraction unbound: 0.53
[5]
  solubility thermodynamic: 1900 µM (≈ 588 µg/mL)
[34]
  bioavailability: 65%
[6]
  Papp B→A: 4.7 ×10⁻⁶ cm/s
Rattus norvegicus [35]
  Activity: Active
[7]
  solubility thermodynamic: > 4000 µM
[36]
  inhibition: 55%
Cytochrome P450 2C19
  pIC50: < 5.00
[8]
  CLhep predicted: 3.3 mL/min/kg
[9]
  fraction unbound: 0.62
[37]
  clearance: 18 mL/min/kg
[38]
  AUC: 467 µM·h
[10]
  Cmax: 420 nM
[11]
  CLhep predicted: 1.7 mL/min/kg
[39]
  AUC: 10.6 µM·h
[40]
  AUC: 3.9 µM·h
[12]
  pKi: 8.72
[13]
  bioavailability: 52%
[14]
  AUC: 0.94 µM·h
[15]
  clearance: 16 mL/min/kg
[16]
  CLhep predicted: 2.4 mL/min/kg
[17]
  CLhep predicted: 3.7 mL/min/kg
[19]
  CLhep predicted: 3 mL/min/kg
[20]
  half-life: 0.5 h
[21]
  half-life: 2.2 h
[41]
  AUC: 50.1 µM·h
[42]
  Cmax: 630 nM
[22]
  Papp A→B: 2.7 ×10⁻⁶ cm/s
[43]
  AUC: 59.6 µM·h
[23]
  pEC50: 5.25
Cytochrome P450 1A2
  pIC50: < 5.00
[24]
  pKi: 6.55
Cytochrome P450 3A4 [25]
  pIC50: < 5.00
Cytochrome P450 3A4 [26]
  pIC50: 5.10
[27]
  pKi: 7.92
[44]
  half-life: 1.7 h
[28]
  bioavailability: 119%
[45]
  AUC: 15 µM·h
[46]
  AUC: 269 µM·h
Rattus norvegicus [47]
  Activity: Active
Rattus norvegicus [48]
  Activity: Active
[30]
  clearance: 60 mL/min/kg
[31]
  fraction unbound: 0.4
[32]
  Cmax: 2100 nM
